Reference: patent US8273378B2, “Dialysis solutions containing pyrophosphates” (Baxter International, Inc., priority 2007, dated 2012)
Read-outs that look alike come from different tables or passages of the source.

Conditions: for stability of pyrophosphate on storage: 1 week at 40° C.; for stability of pyrophosphate on storage / loss of pyrophosphate during sterilization: all buffers; for change in the pH of the solutions: after sterilization and after storage for a week at 40° C.; for loss of pyrophosphate during sterilization: pH 6 and lower; for Recoveries: unsterilized
Protocol: Introduction: This study was designed to evaluate the stability of pyrophosphate salts with different buffers over a pH range from 4 to 10 during steam sterilization and after storage at 40° C. Two pyrophosphate salts and four buffers were obtained for the study. TRIS was added to all solutions as a pH stabilizer. Two of the solutions were also prepared without TRIS for comparison. The pH of the solutions was adjusted from pH 4-10 with 1N HCl or 1N NaOH. The solutions were sterilized at 121° C. for 40 minutes. Pyrophosphate concentration was determined before and after sterilization and after storage. The pH was also determined after sterilization and after storage.
The salts tested were: • 1. Disodium Pyrophosphate (Na2H2P2O7) • 2. Tetrapotassium Pyrophosphate (K4P2O7)
The study was performed using the sodium and potassium salts of pyrophosphate with the buffers shown below. Solutions were not prepared with bicarbonate below pH 7 because bicarbonate will decompose at a lower pH. • 1. Sodium Lactate • 2. Sodium Bicarbonate • 3. Sodium Citrate • 4. Sodium Pyruvate
The concentrations of the solution components are shown below in Table 2.

For `O=P([O-])([O-])OP(=O)(O)O.[Na+].[Na+]` [Disodium Pyrophosphate], the “stability of pyrophosphate on storage” value (pH 7-10) was “remained unchanged”, the “stability of pyrophosphate on storage” value (pH 7-10, except lactate without TRIS at pH 7) was “stable” and the “change in the pH of the solutions” value was “no change in the pH”. For the same molecule, the “loss of pyrophosphate during sterilization” value was “substantial loss of pyrophosphate”, the “change in pH after sterilization” value (all solutions) was “no change in pH” and the “pH change after storage” value (storage for up to two months at 40° C., all solutions) was “less than 0.1 pH unit”. For the same molecule, the Recoveries (all buffers at pH 6 and higher) was at least 95%, the Recoveries (buffers other than citrate, pH 4 and 5) was 90-102% and the stability during sterilization (with bicarbonate at pH 9-10) was “most stable”.
With `O=P([O-])([O-])OP(=O)([O-])[O-].[K+].[K+].[K+].[K+]` [Tetrapotassium Pyrophosphate] the “change in the pH of the solutions” value was “no change in the pH”, the “loss of pyrophosphate during sterilization” value was “substantial loss of pyrophosphate” and the “change in pH after sterilization” value (all solutions) was “no change in pH”. For the same molecule, the stability during sterilization (pH 9) was “most stable” and the “pH change after storage” value (storage for 1 week) was “less than 0.1 pH unit”.
